From the NIST ThermoML archive (doi:10.1021/je400879v)

Assay: molar heat capacity at constant pressure
Details: 101.33 kPa, Crystal

COC(=O)[C@H](Cc1ccccc1)NC(=O)[C@H](CC(C)C)NC(=O)[C@H](CCSC)NC=O [methyl formyl-L-methionyl-L-leucyl-L-phenylalaninate]
Details	molar heat capacity at constant pressure [J/K/mol]
5 K	1.99
6.02 K	2.6
6.13 K	2.71
6.28 K	2.91
6.43 K	3.21
6.59 K	3.52
6.73 K	3.88
6.88 K	4.29
7.04 K	4.56
7.19 K	4.97
7.35 K	5.42
7.52 K	5.83
7.66 K	6.28
7.84 K	6.73
7.98 K	7.23
8.17 K	7.72
8.33 K	8.13
8.5 K	8.58
8.7 K	9.08
8.84 K	9.48
8.98 K	9.89
9.13 K	10.3
9.3 K	10.7
9.45 K	11
9.62 K	11.5
9.78 K	11.8
9.95 K	12.3
10 K	12.5
10.27 K	13.2
10.63 K	14.1
11.04 K	15
11.45 K	16
11.88 K	17.1
12.29 K	18
12.79 K	19.2
13.24 K	20.4
13.71 K	21.7
14.18 K	22.7
14.65 K	24.1
15 K	25.1
15.12 K	25.3
15.6 K	26.78
15.99 K	28
16.64 K	29.85
17.1 K	31.58
17.62 K	33.24
18.1 K	34.79
18.78 K	37.21
19.22 K	38.75
19.72 K	40.59
20 K	41.76
21.41 K	47.32
23.4 K	55.2
25 K	61.13
25.67 K	63.45
27.96 K	71.89
30 K	79.28
30.29 K	80.5
32.65 K	88.71
35.04 K	96.64
37.44 K	105
39.87 K	112.9
40 K	113.3
42.32 K	120.6
44.78 K	127.7
47.26 K	134.1
49.75 K	139.9
50 K	140.8
52.01 K	145.9
54.78 K	153.1
57.3 K	160.1
59.87 K	167.1
60 K	167.6
62.41 K	174.3
64.96 K	181.3
66.9 K	186.5
70 K	194.3
70.06 K	194.1
72.6 K	201
75.15 K	206
77.73 K	212.1
80 K	216.1
80.1 K	216.1
82.93 K	221.7
85.5 K	227
88.2 K	232.3
90 K	236.3
90.6 K	238.4
90.85 K	237.1
93.51 K	243.4
96.19 K	248.8
98.88 K	253.3
100 K	256.4
101.58 K	258.9
104.28 K	264
106.98 K	269.4
109.69 K	274.9
110 K	275.6
112.38 K	279.5
115.08 K	284.3
117.78 K	289.3
120 K	292.9
120.47 K	293.3
123.16 K	297.5
125.85 K	302.5
128.53 K	306.7
130 K	309.1
131.22 K	310.6
133.99 K	316.2
136.67 K	319.1
139.35 K	323.5
140 K	324.7
